Where two headings read alike, the source gives them in different places.
Assays:
[1] = system: PSA; assay: Prostate Surface Antigen (PSA) assay, PSA excreted into the media; assay type: cell-based, human; details: same plates as eGFP assay
Method: The evaluation of PSA excreted into the media was performed in parallel to the eGFP assay using the same plates (see above description). After the cells were incubated for 3 days 150 μl of the media was taken from each well, and added to 150 μl of PBS.

[2] = target: T1, androgen receptor (AR) (Homo sapiens, UniProt P10275, T878A); assay: eGFP cellular AR transcription assay; assay type: cell-based
T1 construct: stably transfected eGFP-expressing LNCaP human prostate cancer cells (LN-ARR2PB-eGFP) containing an androgen responsive probasin-derived promoter; endogenous in cells; host or cells: LNCaP (LN-ARR2PB-eGFP)
T1 sequence (P10275 1-920 T878A): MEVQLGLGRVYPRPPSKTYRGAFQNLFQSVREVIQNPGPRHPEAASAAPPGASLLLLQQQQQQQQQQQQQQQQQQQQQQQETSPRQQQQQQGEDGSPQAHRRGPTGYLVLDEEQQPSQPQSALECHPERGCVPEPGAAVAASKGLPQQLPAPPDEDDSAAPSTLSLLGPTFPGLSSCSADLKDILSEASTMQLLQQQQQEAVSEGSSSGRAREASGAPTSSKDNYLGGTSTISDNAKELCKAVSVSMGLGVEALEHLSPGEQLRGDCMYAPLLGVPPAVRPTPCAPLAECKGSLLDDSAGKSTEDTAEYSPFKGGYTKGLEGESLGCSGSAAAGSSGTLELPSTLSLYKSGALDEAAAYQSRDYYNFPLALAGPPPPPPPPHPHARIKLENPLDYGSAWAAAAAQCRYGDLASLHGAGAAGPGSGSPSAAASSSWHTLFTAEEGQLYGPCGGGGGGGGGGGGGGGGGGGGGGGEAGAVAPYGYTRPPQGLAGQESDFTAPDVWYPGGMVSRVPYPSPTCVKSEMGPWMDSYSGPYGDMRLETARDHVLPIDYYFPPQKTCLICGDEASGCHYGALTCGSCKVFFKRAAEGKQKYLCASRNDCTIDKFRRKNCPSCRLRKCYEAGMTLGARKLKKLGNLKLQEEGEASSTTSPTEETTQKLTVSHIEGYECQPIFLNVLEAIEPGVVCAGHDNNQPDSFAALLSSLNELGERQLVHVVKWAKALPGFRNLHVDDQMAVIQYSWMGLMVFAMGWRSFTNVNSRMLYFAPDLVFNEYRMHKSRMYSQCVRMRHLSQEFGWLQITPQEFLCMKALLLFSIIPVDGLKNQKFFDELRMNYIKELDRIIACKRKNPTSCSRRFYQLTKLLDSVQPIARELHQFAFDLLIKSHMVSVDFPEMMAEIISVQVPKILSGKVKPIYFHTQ
Procedure, shortened: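 AR transcriptional activity is read as eGFP expression from a probasin-derived androgen-responsive promoter. Compound titrated 0-100 μM in the presence of 0.1 nM R1881; 35,000 cells/well.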

[3] = Homo sapiens, 72 h, media after 3 days, read-out: IC50 (PSA)
[4] = LN-ARR2PB-eGFP LNCaP cells, 0.1 nM R1881, 3 days, 0-100 μM compound, read-out: IC50 (eGFP)
[5] = Homo sapiens, 72 h, PSA excreted into media, 3 days incubation, read-out: PSA IC50
[6] = LN-ARR2PBeGFP LNCaP cells, 0.1 nM R1881, 3 days incubation, read-out: eGFP IC50
[7] = LN-ARR2PB-eGFP LNCaP cells, 0.1 nM R1881, 3 days, 0-100 μM compound
[8] = PSA excreted into media, 3 days incubation
[9] = LN-ARR2PBeGFP LNCaP cells, 0.1 nM R1881, 3 days incubation

| Structure (SMILES) | IC50 [1, 3] [nM] | IC50 [2, 4] [nM] | IC50 [1, 5] [nM] | IC50 [2, 6] [nM] | also measured |
| --- | --- | --- | --- | --- | --- |
| c1ccc(-c2ccc(-c3c[nH]c4ncccc34)cc2)cc1 [13 715] | 350 | 4080 |  |  |  |
| CNC(=O)c1cccc2nc(-c3c[nH]c4ccccc34)ccc12 [Compound 13691] |  |  | 480 | 400 |  |
| Cc1ccc(/N=N/c2c[nH]c3ccccc23)c(C)c1 [Compound 13225] |  |  |  | 700 | IC50 ([1]; PSA excreted into media, 3 days incubation, read-out: PSA IC50): 900 nM |
| Brc1ccc2c(-c3ccc4ccccc4n3)c[nH]c2c1 [13 568] | 1560 | 1300 |  |  |  |
| NC(=O)c1ccccc1/N=C/c1c[nH]c2ccccc12 [Compound 13427] |  |  | 310 | 400 |  |
| O=[N+]([O-])c1cccc2c(-c3ccc4ccccc4c3)c[nH]c12 [13 702] | 140 | 200 |  |  |  |
| FC(F)(F)c1ccccc1-c1c[nH]c2ccccc12 [Compound 13745] |  |  | 950 | 1010 |  |
| Cc1cccc2c(-c3cccnc3)c[nH]c12 [13 655] | 610 | 1660 |  |  |  |
| Cc1cccc2c(-c3ccc4scnc4c3)c[nH]c12 [13 758] |  |  |  |  | IC50 (PSA) ([1]; media after 3 days): IC50 (PSA) = Inactive; IC50 (eGFP) [2, 7]: IC50 (eGFP) = Inactive |
| CNC(=O)c1ccc(Cl)c2nc(-c3c[nH]c4c(F)c(F)c(F)cc34)ccc12 [Compound 13755] |  |  | 470 | 470 |  |
| CC1(C)C(c2c[nH]c3c(O)cccc23)=Nc2ccccc21 [13 541] | 940 | 500 |  |  |  |
| c1ccc(-c2c[nH]c3ncccc23)cc1 [13 739] | 670 | 660 |  |  |  |
| c1ccc2nc(-c3c[nH]c4ccccc34)ncc2c1 [Compound 13587] |  |  | 530 | 760 |  |
| c1ccc2ncc(-c3c[nH]c4ccncc34)cc2c1 [13 637] |  |  |  |  | IC50 (PSA) ([1]; media after 3 days): IC50 (PSA) = Inactive; IC50 (eGFP) [2, 7]: IC50 (eGFP) = Inactive |
| Cc1c(F)ccc2c(-c3ccc4c(C#N)cccc4n3)c[nH]c12 [Compound 13609] |  |  |  |  | PSA IC50 [1, 8]: Inactive; eGFP IC50 [2, 9]: Inactive |
| Brc1cccc2c(-c3ccc4ccccc4n3)c[nH]c12 [13 582] | 41 | 52 |  |  |  |
| Clc1cccc2nc(-c3c[nH]c4c(Cl)cccc34)ccc12 [Compound 13748] |  |  |  |  | PSA IC50 [1, 8]: Inactive; eGFP IC50 [2, 9]: Inactive |
| FC(F)(F)c1ccccc1-c1c[nH]c2ccccc12 [13 745] | 950 | 1010 |  |  |  |
| CC1(C)C(c2c[nH]c3c(O)cccc23)=Nc2ccccc21 [Compound 13541] |  |  | 940 | 500 |  |
| COc1cccc2c(-c3cc(C)c4ccccc4n3)c[nH]c12 [Compound 13554] |  |  | 670 | 590 |  |
| c1ccc2nc(-c3n[nH]c4ccccc34)ccc2c1 [Compound 13579] |  |  | 43 |  | IC50 ([2]; eGFP IC50, LN-ARR2PBeGFP LNCaP cells, 0.1 nM R1881, 3 days incubation): 101 nM |
| Cc1cccc2c(-c3ccc4ocnc4c3)c[nH]c12 [13 759] | 270 | 300 |  |  |  |
| CC1(C)c2ccc(Br)cc2NC1c1c[nH]c2c(OCc3ccccc3)cccc12 (stereo not shown) [Compound 13543] |  |  | 3190 | 3700 |  |
| CCc1cccc2c(-c3ccc4ccccc4n3)c[nH]c12 [13 567] | 230 | 200 |  |  |  |
| Brc1cccc2c(-c3ccc4ccccc4n3)c[nH]c12 [Compound 13582] |  |  | 41 | 52 |  |
| Clc1ccccc1/N=N/c1c[nH]c2ccccc12 [Compound 13255] |  |  | 460 | 500 |  |
| C(=C\c1c[nH]c2ccccc12)/c1ccccc1 [Compound 13235] |  |  | 1010 | 2200 |  |
| CNC(=O)c1cccc2nc(-c3c[nH]c4c(C)c(F)ccc34)ccc12 [Compound 13615] |  |  |  |  | PSA IC50 [1, 8]: Inactive; eGFP IC50 [2, 9]: Inactive |
| Cc1ccc2nc(-n3ccc4cccc(C)c43)ccc2c1 [Compound 13647] |  |  |  |  | PSA IC50 [1, 8]: Inactive; eGFP IC50 [2, 9]: Inactive |
